Source: Sander's compilation of Henry's law constants (doi:10.1021/jf001510f)

Assay: Henry solubility constant Hcp at 310 K (mol/(m3 Pa))
Conditions: reference: van Ruth et al. (2001)

Henry solubility constant Hcp at 310 K | SMILES
0.16 | CCCCCCO [1-hexanol]
0.65 | CCCO [1-propanol]
0.015 | CCCCCCCCC(C)=O [2-decanone]
0.025 | CCCCCC(C)=O [2-heptanone]
0.069 | CCCCCCCC(C)O (stereo not given) [2-nonanol]
0.018 | CCCCCCC(C)=O [2-octanone]
0.23 | CCCC(C)O (stereo not given) [2-pentanol]
0.32 | CC(C)CCO [3-methyl-1-butanol]
0.0049 | CSC [dimethyl sulfide]
0.016 | CCCC(=O)OCC [ethyl butanoate]
0.03 | CCOC(C)=O [ethyl ethanoate]
0.011 | CCCCCCC=O [heptanal]
0.0088 | CCCCCCCC=O [octanal]
0.018 | CCCOC(C)=O [propyl ethanoate]

SMILES | Henry solubility constant Hcp at 310 K
CCCCOC(C)=O [butyl ethanoate] | 0.017
